Experiments:
Experiment in all cases: relative viability (nuclei count vs DMSO), 5 days (fraction); higher = more cells survive
[1] = compound: C/C(=N\NC(=S)N1CCC1)/C2=CC=CC=N2 + CCNC(=O)c1noc(-c2cc(C(C)C)c(O)cc2O)c1-c1ccc(CN2CCOCC2)cc1 [Luminespib] (partner 0.01 µM)
In short: (§1)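 Lung cancer cell lines were seeded in 1536-well plates and dosed by pin tool the next day, with either a single drug or a fixed anchor-drug dose combined with five library-drug doses (not always all listed) spaced in √10 steps. Five days later, one step fixed the cells and stained their nuclei (final 0.05% Triton X-100, 1% formaldehyde, 1 ug/ml Hoechst), and nuclei were counted on 4× images. Relative viability is the nuclei count in treated wells divided by the count in vehicle wells, and each value is the median of duplicate plates.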

[2] = compound: C/C(=N\NC(=S)N1CCC1)/C2=CC=CC=N2 + COc1cccc2cc(-c3nc([C@H]4CC[C@H](C(=O)O)CC4)n4ncnc(N)c34)[nH]c12 [OSI-027] (partner 0.5 µM)
In short: as §1

[3] = compound: C/C(=N\NC(=S)N1CCC1)/C2=CC=CC=N2 + CS(=O)(=O)CCNCc1ccc(-c2ccc3ncnc(Nc4ccc(OCc5cccc(F)c5)c(Cl)c4)c3c2)o1 [Lapatinib] (partner 2 µM)
In short: as §1

[4] = compound: C/C(=N\NC(=S)N1CCC1)/C2=CC=CC=N2 + C[C@]1(O)C[C@@H](c2nc(-c3ccc4ccc(-c5ccccc5)nc4c3)c3c(N)nccn32)C1 [Linsitinib] (partner 1 µM)
In short: as §1

Row | Cell Line | relative viability ([1]; first compound 0.05 µM) | relative viability ([1]; first compound 0.1581 µM) | relative viability ([1]; first compound 0.5 µM) | relative viability ([1]; first compound 1.581 µM) | relative viability ([1]; first compound 5 µM) | relative viability ([2]; first compound 0.05 µM) | relative viability ([2]; first compound 0.1581 µM) | relative viability ([2]; first compound 0.5 µM) | relative viability ([2]; first compound 1.581 µM) | relative viability ([2]; first compound 5 µM) | relative viability ([3]; first compound 0.05 µM) | relative viability ([3]; first compound 0.1581 µM) | relative viability ([3]; first compound 0.5 µM) | relative viability ([3]; first compound 1.581 µM) | relative viability ([3]; first compound 5 µM) | relative viability ([4]; first compound 0.05 µM) | relative viability ([4]; first compound 0.1581 µM) | relative viability ([4]; first compound 0.5 µM) | relative viability ([4]; first compound 1.581 µM) | relative viability ([4]; first compound 5 µM)
1 | H3255 | 0.21 | 0.262 | 0.232 | 0.176 | 0.302 | 0.364 | 0.293 | 0.25 | 0.254 | 0.29 | 0.255 | 0.218 | 0.14 | 0.157 | 0.184 | 0.278 | 0.269 | 0.276 | 0.197 | 0.21
2 | EPLC-272H | 0.105 | 0.105 | 0.192 | 0.203 | 0.165 | 0.159 | 0.13 | 0.138 | 0.103 | 0.112 | 0.139 | 0.195 | 0.229 | 0.155 | 0.161 | 0.16 | 0.424 | 0.173 | 0.149 | 0.16
3 | PC-3 [JPC-3] | 0.354 | 0.415 | 0.257 | 0.232 | 0.216 | 0.271 | 0.301 | 0.265 | 0.25 | 0.214 | 0.267 | 0.27 | 0.259 | 0.228 | 0.229 | 0.647 | 0.973 | 0.469 | 0.313 | 0.311
4 | NCI-H1793 | 0.214 | 0.142 | 0.103 | 0.119 | 0.141 | 0.128 | 0.176 | 0.159 | 0.153 | 0.142 | 0.192 | 0.169 | 0.165 | 0.146 | 0.197 | 0.22 | 0.233 | 0.132 | 0.142 | 0.167
5 | EKVX | 0.0986 | 0.123 | 0.114 | 0.119 | 0.143 | 0.12 | 0.122 | 0.11 | 0.111 | 0.146 | 0.108 | 0.137 | 0.119 | 0.153 | 0.131 | 0.141 | 0.122 | 0.0907 | 0.135 | 0.141
6 | ChaGo-K-1 | 0.167 | 0.172 | 0.174 | 0.139 | 0.161 | 0.15 | 0.168 | 0.177 | 0.163 | 0.165 |  |  |  |  |  |  |  |  |  | 
7 | NCI-H23 | 0.151 | 0.149 | 0.204 | 0.206 | 0.204 | 0.136 | 0.127 | 0.154 | 0.137 | 0.143 | 0.169 | 0.168 | 0.171 | 0.151 | 0.166 | 0.134 | 0.196 | 0.13 | 0.124 | 0.151
8 | EMC-BAC-2 | 0.217 | 0.225 | 0.177 | 0.19 | 0.232 | 0.199 | 0.22 | 0.233 | 0.189 | 0.209 | 0.113 | 0.169 | 0.178 | 0.173 | 0.153 | 0.365 | 0.56 | 0.144 | 0.178 | 0.191
9 | LOU-NH91 | 0.257 | 0.293 | 0.274 | 0.185 | 0.264 | 0.412 | 0.476 | 0.447 | 0.388 | 0.396 | 0.399 | 0.434 | 0.487 | 0.383 | 0.357 | 0.466 | 0.509 | 0.424 | 0.407 | 0.422
10 | LU99A | 0.15 | 0.116 | 0.152 | 0.164 | 0.148 | 0.186 | 0.182 | 0.161 | 0.162 | 0.177 | 0.153 | 0.132 | 0.136 | 0.128 | 0.172 | 0.189 | 0.132 | 0.117 | 0.155 | 0.172
11 | NCI-H1395 | 0.305 | 0.338 | 0.332 | 0.349 | 0.337 | 0.291 | 0.388 | 0.31 | 0.29 | 0.364 | 0.314 | 0.424 | 0.355 | 0.315 | 0.412 | 0.374 | 0.336 | 0.307 | 0.353 | 0.36
12 | NCI-H460 | 0.0193 | 0.0163 | 0.025 | 0.0173 | 0.0171 | 0.0284 | 0.0249 | 0.0234 | 0.0201 | 0.0147 | 0.0117 | 0.0152 | 0.017 | 0.015 | 0.0086 | 0.0136 | 0.0148 | 0.0172 | 0.0108 | 0.005
13 | 201T | 0.394 | 0.394 | 0.35 | 0.322 | 0.256 | 0.402 | 0.21 | 0.201 | 0.166 | 0.134 | 0.447 | 0.578 | 0.444 | 0.447 | 0.351 | 0.742 | 1 | 0.564 | 0.503 | 0.41
14 | NCI-H1944 | 0.527 | 0.265 | 0.143 | 0.124 | 0.113 | 0.197 | 0.192 | 0.168 | 0.133 | 0.12 | 0.194 | 0.317 | 0.207 | 0.144 | 0.163 | 0.875 | 1.06 | 0.6 | 0.259 | 0.196
15 | NCI-H2405 | 0.218 | 0.245 | 0.287 | 0.242 | 0.283 | 0.26 | 0.238 | 0.229 | 0.226 | 0.24 | 0.251 | 0.236 | 0.263 | 0.25 | 0.281 | 0.193 | 0.207 | 0.31 | 0.225 | 0.223
16 | NCI-H1703 |  |  |  |  |  |  |  |  |  |  | 0.185 | 0.153 | 0.17 | 0.168 | 0.178 | 0.0702 | 0.0548 | 0.068 | 0.0799 | 0.121
17 | NCI-H1755 | 0.191 | 0.184 | 0.198 | 0.243 | 0.275 | 0.292 | 0.288 | 0.287 | 0.273 | 0.228 | 0.249 | 0.173 | 0.195 | 0.205 | 0.191 | 0.528 | 0.959 | 0.194 | 0.22 | 0.215

From the supplement of paper PMC10307832
